# According to ChEMBL document CHEMBL1201862, “PubChem BioAssay data set” (2004):
#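 Compound exposure: 48 hours, 5 concentrations, 96-well plates. Here, GI50 denotes the concentration required for 50% inhibition of growth.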 The source made the active and inactive calls. Cut-off read from the data, not from the text of the source: active = GI50 up to about 1.1 µM and inactive = higher.
# How the values were obtained:
# Assay in all cases: NCI anticancer screen, dose series, 48 h
# T47D = system: T47D
# MDA-N = system: MDA-N
# OVCAR-4 = system: OVCAR-4
# SK-OV-3 = system: SK-OV-3
# OVCAR-3 = system: OVCAR-3
# UACC-257 = system: UACC-257
# MDA-MB-231 = system: MDA-MB-231
# LOX IMVI = system: LOX IMVI
# SN12C = system: SN12C
# K562 = system: K562
# NCI/ADR-RES = system: NCI/ADR-RES
# HCC 2998 = system: HCC 2998
# SK-MEL-28 = system: SK-MEL-28
# KM12 = system: KM12
# HOP-62 = system: HOP-62
# PC-3 = system: PC-3
# OVCAR-5 = system: OVCAR-5
# RXF 393 = system: RXF 393
# HL-60 = system: HL-60
# TK-10 = system: TK-10
# Malme-3M = system: Malme-3M
# U-251 = system: U-251
# DU-145 = system: DU-145
# SK-MEL-2 = system: SK-MEL-2
# HT-29 = system: HT-29
# 786-0 = system: 786-0
# OVCAR-8 = system: OVCAR-8
# NCI-H522 = system: NCI-H522
# NCI-H460 = system: NCI-H460
# UO-31 = system: UO-31
# ACHN = system: ACHN
# HCT-116 = system: HCT-116
# NCI-H226 = system: NCI-H226
# COLO 205 = system: COLO 205
# SK-MEL-5 = system: SK-MEL-5
# SNB-75 = system: SNB-75
# MOLT-4 = system: MOLT-4
# NCI-H23 = system: NCI-H23
# SF-268 = system: SF-268
# UACC-62 = system: UACC-62
# HCT-15 = system: HCT-15
# SF-295 = system: SF-295
# A549 = system: A549
# CCRF-CEM = system: CCRF-CEM
# A498 = system: A498
# SF-539 = system: SF-539
# HOP-92 = system: HOP-92
# IGROV-1 = system: IGROV-1
# M14 = system: M14
# MDA-MB-435 = system: MDA-MB-435
# SNB-19 = system: SNB-19
# SR = system: SR
# CAKI-1 = system: CAKI-1
# SW-620 = system: SW-620
# EKVX = system: EKVX
# RPMI-8226 = system: RPMI-8226
# Hs-578T = system: Hs-578T
# MCF7 = system: MCF7
structure (smiles),measurement,setting,value
CC(=O)c1c(-c2ccc(Cl)cc2)c(C#N)c(=S)n(C2OC(CO)C(O)C(O)C2O)c1C (centres undefined),GI50,T47D,49.3 µM (inactive)
same,GI50,MDA-N,30.8 µM (inactive)
same,GI50,OVCAR-4,38.5 µM (inactive)
same,GI50,SK-OV-3,82.8 µM (inactive)
same,GI50,OVCAR-3,30.8 µM (inactive)
same,GI50,UACC-257,82.4 µM (inactive)
same,GI50,MDA-MB-231,37 µM (inactive)
same,GI50,LOX IMVI,30.1 µM (inactive)
same,GI50,SN12C,52.6 µM (inactive)
same,GI50,K562,32.4 µM (inactive)
same,GI50,NCI/ADR-RES,> 100 µM (inactive)
same,GI50,HCC 2998,> 100 µM (inactive)
same,GI50,SK-MEL-28,34.1 µM (inactive)
same,GI50,KM12,40.4 µM (inactive)
same,GI50,HOP-62,65 µM (inactive)
same,GI50,PC-3,31.5 µM (inactive)
same,GI50,OVCAR-5,> 100 µM (inactive)
same,GI50,RXF 393,98.2 µM (inactive)
same,GI50,HL-60,26.9 µM (inactive)
same,GI50,TK-10,70.6 µM (inactive)
same,GI50,Malme-3M,67 µM (inactive)
same,GI50,U-251,36.8 µM (inactive)
same,GI50,DU-145,> 100 µM (inactive)
same,GI50,SK-MEL-2,28.2 µM (inactive)
same,GI50,HT-29,30.1 µM (inactive)
same,GI50,786-0,63.2 µM (inactive)
same,GI50,OVCAR-8,> 100 µM (inactive)
same,GI50,NCI-H522,32.3 µM (inactive)
same,GI50,NCI-H460,37 µM (inactive)
same,GI50,UO-31,1.44 µM (inactive)
same,GI50,ACHN,42.3 µM (inactive)
same,GI50,HCT-116,47 µM (inactive)
same,GI50,NCI-H226,58.3 µM (inactive)
same,GI50,COLO 205,32.5 µM (inactive)
same,GI50,SK-MEL-5,37.2 µM (inactive)
same,GI50,SNB-75,> 100 µM (inactive)
same,GI50,MOLT-4,21.6 µM (inactive)
same,GI50,NCI-H23,45.4 µM (inactive)
same,GI50,SF-268,53.3 µM (inactive)
same,GI50,UACC-62,22.3 µM (inactive)
same,GI50,HCT-15,82 µM
same,GI50,SF-295,54.6 µM (inactive)
same,GI50,A549,71 µM (inactive)
same,GI50,CCRF-CEM,25.9 µM (inactive)
same,GI50,A498,50.7 µM (inactive)
same,GI50,SF-539,46.7 µM (inactive)
same,GI50,HOP-92,13.1 µM (inactive)
same,GI50,IGROV-1,35.6 µM (inactive)
same,GI50,M14,57.7 µM (inactive)
same,GI50,MDA-MB-435,37.8 µM (inactive)
same,GI50,SNB-19,31 µM (inactive)
same,GI50,SR,30.3 µM (inactive)
O=C1NC(=S)N(c2ccccc2)C1=O,GI50,T47D,> 100 µM (inactive)
same,GI50,CAKI-1,> 100 µM (inactive)
same,GI50,OVCAR-4,> 100 µM (inactive)
same,GI50,SW-620,> 100 µM (inactive)
same,GI50,SK-OV-3,> 100 µM (inactive)
same,GI50,UACC-257,> 100 µM (inactive)
same,GI50,MDA-MB-231,> 100 µM (inactive)
same,GI50,EKVX,> 100 µM (inactive)
same,GI50,LOX IMVI,> 100 µM (inactive)
same,GI50,SN12C,> 100 µM (inactive)
same,GI50,K562,> 100 µM (inactive)
same,GI50,NCI/ADR-RES,> 100 µM (inactive)
same,GI50,HCC 2998,> 100 µM (inactive)
same,GI50,SK-MEL-28,> 100 µM (inactive)
same,GI50,KM12,> 100 µM (inactive)
same,GI50,HOP-62,> 100 µM (inactive)
same,GI50,PC-3,> 100 µM (inactive)
same,GI50,OVCAR-5,> 100 µM (inactive)
same,GI50,RXF 393,> 100 µM (inactive)
same,GI50,HL-60,> 100 µM (inactive)
same,GI50,TK-10,> 100 µM (inactive)
same,GI50,Malme-3M,> 100 µM (inactive)
same,GI50,U-251,> 100 µM (inactive)
same,GI50,DU-145,> 100 µM (inactive)
same,GI50,SK-MEL-2,> 100 µM (inactive)
same,GI50,HT-29,> 100 µM (inactive)
same,GI50,786-0,> 100 µM (inactive)
same,GI50,OVCAR-8,> 100 µM (inactive)
same,GI50,RPMI-8226,> 100 µM (inactive)
same,GI50,NCI-H522,3.79 µM (inactive)
same,GI50,NCI-H460,> 100 µM (inactive)
same,GI50,UO-31,> 100 µM (inactive)
same,GI50,ACHN,> 100 µM (inactive)
same,GI50,HCT-116,> 100 µM (inactive)
same,GI50,NCI-H226,> 100 µM (inactive)
same,GI50,COLO 205,> 100 µM (inactive)
same,GI50,SK-MEL-5,> 100 µM (inactive)
same,GI50,SNB-75,> 100 µM (inactive)
same,GI50,MOLT-4,> 100 µM (inactive)
same,GI50,NCI-H23,> 100 µM (inactive)
same,GI50,SF-268,> 100 µM (inactive)
same,GI50,UACC-62,> 100 µM (inactive)
same,GI50,Hs-578T,> 100 µM (inactive)
same,GI50,HCT-15,> 100 µM
same,GI50,SF-295,> 100 µM (inactive)
same,GI50,A549,> 100 µM (inactive)
same,GI50,CCRF-CEM,> 100 µM (inactive)
same,GI50,A498,> 100 µM (inactive)
same,GI50,SF-539,> 100 µM (inactive)
same,GI50,HOP-92,> 100 µM (inactive)
same,GI50,IGROV-1,> 100 µM (inactive)
same,GI50,MDA-MB-435,> 100 µM (inactive)
same,GI50,SNB-19,> 100 µM (inactive)
same,GI50,SR,> 100 µM (inactive)
C[C@H](N[C@H]1CCC[C@]1(O)C#Cc1ccc2c(c1)OCO2)c1ccccc1,GI50,T47D,21.8 µM (inactive)
same,GI50,CAKI-1,> 25 µM (inactive)
same,GI50,OVCAR-4,14 µM (inactive)
same,GI50,SK-OV-3,> 25 µM (inactive)
same,GI50,UACC-257,> 25 µM (inactive)
same,GI50,MDA-MB-231,22.1 µM (inactive)
same,GI50,EKVX,> 25 µM (inactive)
same,GI50,LOX IMVI,> 25 µM (inactive)
same,GI50,K562,11.7 µM (inactive)
same,GI50,NCI/ADR-RES,> 25 µM (inactive)
same,GI50,HCC 2998,10.7 µM (inactive)
same,GI50,SK-MEL-28,15.5 µM (inactive)
same,GI50,KM12,> 25 µM (inactive)
same,GI50,HOP-62,> 25 µM (inactive)
same,GI50,PC-3,13.6 µM (inactive)
same,GI50,OVCAR-5,> 25 µM (inactive)
same,GI50,RXF 393,> 25 µM (inactive)
same,GI50,HL-60,> 25 µM (inactive)
same,GI50,TK-10,> 25 µM (inactive)
same,GI50,U-251,19.7 µM (inactive)
same,GI50,DU-145,> 25 µM (inactive)
same,GI50,SK-MEL-2,8.61 µM (inactive)
same,GI50,HT-29,> 25 µM (inactive)
same,GI50,OVCAR-8,> 25 µM (inactive)
same,GI50,RPMI-8226,8.89 µM (inactive)
same,GI50,NCI-H460,21.4 µM (inactive)
same,GI50,UO-31,> 25 µM (inactive)
same,GI50,ACHN,> 25 µM (inactive)
same,GI50,MCF7,> 25 µM (inactive)
same,GI50,NCI-H226,> 25 µM (inactive)
same,GI50,COLO 205,9.25 µM (inactive)
same,GI50,SK-MEL-5,22.6 µM (inactive)
same,GI50,SNB-75,15.4 µM (inactive)
same,GI50,MOLT-4,10.9 µM (inactive)
same,GI50,NCI-H23,> 25 µM (inactive)
same,GI50,SF-268,> 25 µM (inactive)
same,GI50,UACC-62,> 25 µM (inactive)
same,GI50,Hs-578T,> 25 µM (inactive)
same,GI50,HCT-15,> 25 µM
same,GI50,SF-295,> 25 µM (inactive)
same,GI50,A549,> 25 µM (inactive)
same,GI50,CCRF-CEM,> 25 µM (inactive)
same,GI50,A498,> 25 µM (inactive)
same,GI50,HOP-92,11.9 µM (inactive)
same,GI50,IGROV-1,14.3 µM (inactive)
same,GI50,M14,14.2 µM (inactive)
same,GI50,MDA-MB-435,> 25 µM (inactive)
same,GI50,SNB-19,> 25 µM (inactive)
same,GI50,SR,20.7 µM (inactive)
O=c1c2ccccc2nc2n1CCc1c-2[nH]c2cc3c(cc12)OCO3,GI50,T47D,> 25 µM (inactive)
same,GI50,MDA-N,17.6 µM (inactive)
same,GI50,SW-620,> 25 µM (inactive)
same,GI50,SK-OV-3,6.95 µM (inactive)
same,GI50,UACC-257,> 25 µM (inactive)
same,GI50,MDA-MB-231,9.71 µM (inactive)
same,GI50,EKVX,> 25 µM (inactive)
same,GI50,SN12C,> 25 µM (inactive)
same,GI50,K562,> 25 µM (inactive)
same,GI50,NCI/ADR-RES,> 25 µM (inactive)
same,GI50,HCC 2998,> 25 µM (inactive)
same,GI50,SK-MEL-28,> 25 µM (inactive)
same,GI50,KM12,15.7 µM (inactive)
same,GI50,HOP-62,9.42 µM (inactive)
same,GI50,PC-3,> 25 µM (inactive)
same,GI50,OVCAR-5,> 25 µM (inactive)
same,GI50,HL-60,> 25 µM (inactive)
same,GI50,TK-10,> 25 µM (inactive)
same,GI50,U-251,7.28 µM (inactive)
same,GI50,OVCAR-8,5.74 µM (inactive)
same,GI50,RPMI-8226,> 25 µM (inactive)
same,GI50,NCI-H522,5.4 µM (inactive)
same,GI50,UO-31,> 25 µM (inactive)
same,GI50,ACHN,3.98 µM (inactive)
same,GI50,HCT-116,3.32 µM (inactive)
same,GI50,MCF7,> 25 µM (inactive)
same,GI50,COLO 205,> 25 µM (inactive)
same,GI50,SK-MEL-5,13.7 µM (inactive)
same,GI50,SNB-75,6.61 µM (inactive)
same,GI50,MOLT-4,> 25 µM (inactive)
same,GI50,SF-268,5.41 µM (inactive)
same,GI50,HCT-15,8.65 µM
same,GI50,SF-295,5.55 µM (inactive)
same,GI50,SF-539,5.77 µM (inactive)
same,GI50,IGROV-1,> 25 µM (inactive)
same,GI50,M14,> 25 µM (inactive)
same,GI50,MDA-MB-435,13.6 µM (inactive)
same,GI50,SNB-19,5.11 µM (inactive)
same,GI50,SR,> 25 µM (inactive)
